From paper PMC12365235, “Molecular mechanisms of thiazide-like diuretics-mediated inhibition of the human Na-Cl cotransporter” (Nature Communications, 2025)

Molecular target: T1, NCCcryo (Homo sapiens, UniProt P55017, E240A)
T1 sequence (P55017 132-1021 E240A): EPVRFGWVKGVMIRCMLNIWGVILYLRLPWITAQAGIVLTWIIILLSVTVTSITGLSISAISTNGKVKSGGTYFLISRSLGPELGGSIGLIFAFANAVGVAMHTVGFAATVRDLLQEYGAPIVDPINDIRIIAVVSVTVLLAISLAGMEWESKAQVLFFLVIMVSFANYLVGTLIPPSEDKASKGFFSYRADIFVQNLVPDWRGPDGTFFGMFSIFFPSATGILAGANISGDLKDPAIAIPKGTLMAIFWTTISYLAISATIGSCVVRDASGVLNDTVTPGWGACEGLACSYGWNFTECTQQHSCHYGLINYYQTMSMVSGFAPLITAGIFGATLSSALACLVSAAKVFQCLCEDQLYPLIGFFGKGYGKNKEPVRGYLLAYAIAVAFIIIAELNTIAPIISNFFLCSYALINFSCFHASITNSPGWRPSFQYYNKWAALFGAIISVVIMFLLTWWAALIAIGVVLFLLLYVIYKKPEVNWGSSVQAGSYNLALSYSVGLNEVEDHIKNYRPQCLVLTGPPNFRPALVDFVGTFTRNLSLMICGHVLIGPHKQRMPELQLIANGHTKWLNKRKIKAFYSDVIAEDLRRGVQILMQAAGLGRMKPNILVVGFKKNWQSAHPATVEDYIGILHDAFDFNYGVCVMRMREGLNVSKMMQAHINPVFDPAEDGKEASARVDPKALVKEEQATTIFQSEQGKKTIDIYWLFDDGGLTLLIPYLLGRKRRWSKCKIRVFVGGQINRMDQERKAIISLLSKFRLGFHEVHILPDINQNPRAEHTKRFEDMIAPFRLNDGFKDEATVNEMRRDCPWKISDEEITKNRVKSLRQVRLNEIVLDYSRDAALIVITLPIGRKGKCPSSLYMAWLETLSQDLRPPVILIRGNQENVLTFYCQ
T1 sequence (A0A0G2KTI4 1-202 E76K partner): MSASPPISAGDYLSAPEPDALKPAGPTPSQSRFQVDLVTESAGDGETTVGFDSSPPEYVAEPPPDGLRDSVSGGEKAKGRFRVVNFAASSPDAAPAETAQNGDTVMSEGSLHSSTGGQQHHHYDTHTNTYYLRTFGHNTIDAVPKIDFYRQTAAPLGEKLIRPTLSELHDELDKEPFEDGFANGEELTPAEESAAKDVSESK
Test: 125I- uptake assay, NCCcryo construct
Assay type: cell-based
Details: thiazide-sensitive iodide uptake; hNCC with DrNKCC1 NTD and E240A
Method: The NCCcryo construct consists of human NCC with its NTD (first 131 residues) replaced by that of zebrafish NKCC1 (first 202 residues), along with an E240A mutation and a Strep-tag II[69] at the N-terminus. The codon-optimized NCCcryo was cloned into a modified BacMam vector[70], which was then used for generating baculoviruses. HEK293S cells (3.0–3.5 × 10^6 cells per mL) were infected with the baculoviruses for NCCcryo, with sodium butyrate (10 mM) added 12–15 h afterwards, and the incubation temperature reduced to 30 °C. Two days after the addition of sodium butyrate, HEK293S cells were harvested.
HEK293S cell lines, cultured in 293 Freestyle medium (Life Technologies; plus 10% fetal bovine serum), stably expressing hNCC and its variants were generated following published protocols. Cells were transfected using Lipofectamine 3000 (Invitrogen) with a pSBbi-RP-based plasmid containing hNCC or its variants and the SB100X vector. Puromycin (2 μg/mL; Gemini Bio-Products) was used for selection of stable cell lines.
To prepare for the uptake experiment, cells were plated at 0.5 × 10^6 cells/well in 24-well plates one day in advance. […] Cells lysed using 1% sodium dodecyl sulfate (SDS) were analyzed by scintillation counting. […]

CC1Cc2ccccc2N1NC(=O)c1ccc(Cl)c(S(N)(=O)=O)c1 (centres unmarked) [indapamide]
IC50: 0.0091 µM

NS(=O)(=O)c1cc(C2(O)NC(=O)c3ccccc32)ccc1Cl (centres unmarked) [chlorthalidone]
IC50: 0.02 µM
